Values of other authors as cited in PMC5742115, “Pharmacophore Modeling and in Silico/in Vitro Screening for Human Cytochrome P450 11B1 and Cytochrome P450 11B2 Inhibitors” (Frontiers in Chemistry, 2017).
Where two headings read alike, the source gives them in different places.

How the values were obtained:
CYP11B2 = details: reported activity, supplementary Table 1, read-out: CYP11B2 IC50, cited from earlier work
CYP11B1 = details: reported activity, supplementary Table 1, read-out: CYP11B1 IC50, cited from earlier work
[1] = ref Pinto-Bazurco Mendieta et al., 2013

COc1ccc(-c2cncc(-c3cc4c5c(c3)CCN5C(=O)CC4)c2)cc1 [CHEMBL1765228]
IC50 (CYP11B2; ref Lucas et al., 2011): 1.4 nM | IC50 (CYP11B1; ref Lucas et al., 2011): 21 nM

COc1cccc(C(c2cc3c4c(c2)CCN4C(=O)CC3)n2ccnc2)c1 (stereo not drawn) [CHEMBL2163645]
IC50 (CYP11B2; ref Yin et al., 2012): 88 nM | IC50 (CYP11B1; ref Yin et al., 2012): 110 nM

c1ccc(C(CCn2ccnc2)(c2ccccc2)c2ccccc2)cc1 [CHEMBL1651509]
IC50 (CYP11B2; ref Hille et al., 2011b): 290 nM | IC50 (CYP11B1; ref Hille et al., 2011b): 80 nM

c1ccc(-c2ncc(Cn3ccnc3)c3ccccc23)cc1 [CHEMBL2417632]
IC50 (CYP11B2; ref Emmerich et al., 2013): 302 nM | IC50 (CYP11B1; ref Emmerich et al., 2013): 87 nM

O=C1CCc2cc(-c3cncc(-c4cc(F)cc(F)c4)c3)cc3c2N1CC3 [CHEMBL1765225]
IC50 (CYP11B2; ref Lucas et al., 2011): 18 nM | IC50 (CYP11B1; ref Lucas et al., 2011): 1750 nM

Fc1ccc2c(c1)CC/C2=C\c1cccc2cnccc12 [CHEMBL370530]
IC50 (CYP11B2; ref Ulmschneider et al., 2005b): 57 nM | IC50 (CYP11B1; ref Ulmschneider et al., 2005b): 58 nM

O=c1cc(Cn2ccnc2)c2ccc(OCc3ccccc3)cc2o1 [CHEMBL225499]
IC50 (CYP11B2; ref Stefanachi et al., 2011): 289 nM | IC50 (CYP11B1; ref Stefanachi et al., 2011): 72 nM

CCOc1ccc2c(c1)CC/C2=C\c1cccnc1 [CHEMBL425323]
IC50 (CYP11B2; ref Ulmschneider et al., 2005a): 79 nM | IC50 (CYP11B1; ref Ulmschneider et al., 2005a): 2370 nM

Oc1cncc(-c2ccc3ccc(O)cc3c2Cl)c1 [CHEMBL2420684]
IC50 (CYP11B2; [1]): 27 nM | IC50 (CYP11B1; [1]): 2840 nM

COc1ccc(C(c2ccncc2)c2cc3c4c(c2)CCN4C(=O)CC3)cc1 (stereo not drawn) [CHEMBL2312957]
IC50 (CYP11B2; ref Yin et al., 2013): 46 nM | IC50 (CYP11B1; ref Yin et al., 2013): 1690 nM

C(=C1\CCc2ccccc21)/c1cccnc1 [CHEMBL363621]
IC50 (CYP11B2; ref Ulmschneider et al., 2005b): 92 nM | IC50 (CYP11B1; ref Ulmschneider et al., 2005b): 87 nM

c1ccc(-c2ccc(C(C3CC3)n3ccnc3)cn2)cc1 (stereo not drawn) [CHEMBL2417621]
IC50 (CYP11B2; ref Emmerich et al., 2013): 25 nM | IC50 (CYP11B1; ref Emmerich et al., 2013): 21 nM

c1ccc(-c2csc(Cn3ccnc3)c2)cc1 [CHEMBL403598]
IC50 (CYP11B2; ref Hille et al., 2011b): 277 nM | IC50 (CYP11B1; ref Hille et al., 2011b): 19 nM

COc1ccc2ccc(-c3cncc(O)c3)c(Cl)c2c1 [CHEMBL2420683]
IC50 (CYP11B2; [1]): 13 nM | IC50 (CYP11B1; [1]): 7100 nM

COc1ccc(Cn2cncc2-c2ccccc2)cc1 [CHEMBL591697]
IC50 (CYP11B2; ref Roumen et al., 2010): 14 nM | IC50 (CYP11B1; ref Roumen et al., 2010): 11 nM

O=C1CCc2cc(-c3cncc4ccccc34)ccc2N1 [CHEMBL456390]
IC50 (CYP11B2; ref Lucas et al., 2008b): 0.2 nM | IC50 (CYP11B1; ref Lucas et al., 2008b): 33 nM

OC1CCc2cc(-c3cccnc3)ccc2C1 (stereo not drawn) [CHEMBL461458]
IC50 (CYP11B2; ref Lucas et al., 2008b): 44 nM | IC50 (CYP11B1; ref Lucas et al., 2008b): 4920 nM

Fc1ccc2c(c1)CC/C2=C\c1cncnc1 [CHEMBL195248]
IC50 (CYP11B2; ref Ulmschneider et al., 2005b): 6 nM | IC50 (CYP11B1; ref Ulmschneider et al., 2005b): 27 nM

c1ccc(-c2cncc(Cc3ccc(-c4ccccc4)nc3)c2)cc1 [CHEMBL2417616]
IC50 (CYP11B2; ref Emmerich et al., 2013): 0.5 nM | IC50 (CYP11B1; ref Emmerich et al., 2013): 1.3 nM

COc1ccc2cc(-c3cnccc3CO)ccc2c1 [CHEMBL449894]
IC50 (CYP11B2; ref Heim et al., 2008): 22 nM | IC50 (CYP11B1; ref Heim et al., 2008): 1760 nM

COc1ccc2ccc(-c3cncc4ccccc34)c(Cl)c2c1 [CHEMBL2420687]
IC50 (CYP11B2; [1]): 54 nM | IC50 (CYP11B1; [1]): 362 nM

O=C1CCc2cc(-n3ccnc3)cc3c2N1CC3 [CHEMBL1765218]
IC50 (CYP11B2; ref Lucas et al., 2011): 89 nM | IC50 (CYP11B1; ref Lucas et al., 2011): 2080 nM

Oc1ccc2ccc(-c3cccnc3)c(Cl)c2c1F [CHEMBL2420678]
IC50 (CYP11B2; [1]): 25 nM | IC50 (CYP11B1; [1]): 224 nM

O=c1c2ccccc2oc2c(OC3CCCC3)ccc(Cn3ccnc3)c12 [CHEMBL2333335]
IC50 (CYP11B2; ref Gobbi et al., 2013): 99.7 nM | IC50 (CYP11B1; ref Gobbi et al., 2013): 268 nM

N#Cc1ccc([C@H]2CCCCc3cncn32)c(F)c1 [CHEMBL3099683]
IC50 (CYP11B2; ref Meredith et al., 2013): 0.3 nM | IC50 (CYP11B1; ref Meredith et al., 2013): 1 nM

Brc1ccc2c(c1)CC/C2=C\c1cccnc1 [CHEMBL194440]
IC50 (CYP11B2; ref Ulmschneider et al., 2005a): 171 nM | IC50 (CYP11B1; ref Ulmschneider et al., 2005a): 320 nM

O=C1CCc2cc(C(c3cccnc3)c3cccc(Cl)c3)cc3c2N1CC3 (stereo not drawn) [CHEMBL2312971]
IC50 (CYP11B2; ref Yin et al., 2013): > 5000 nM | IC50 (CYP11B1; ref Yin et al., 2013): 36 nM

COc1cncc(-c2ccc3cc(OC)ccc3c2)c1 [CHEMBL447591]
IC50 (CYP11B2; ref Heim et al., 2008): 4.2 nM | IC50 (CYP11B1; ref Heim et al., 2008): 238 nM

c1ccc(-c2ccc(Cn3ccnc3)o2)cc1 [CHEMBL1651513]
IC50 (CYP11B2; ref Hille et al., 2011b): 372 nM | IC50 (CYP11B1; ref Hille et al., 2011b): 46 nM

O=C1CCc2cc(C(c3ccccc3)n3ccnc3)cc3c2N1CC3 (stereo not drawn) [CHEMBL2163649]
IC50 (CYP11B2; ref Yin et al., 2012): 33 nM | IC50 (CYP11B1; ref Yin et al., 2012): 50 nM
